Test results: patent publication US20240252581A1, “COMPOSITIONS AND METHODS FOR TREATING RESPIRATORY DISTRESS” (S.I.S. SHULOV INNOVATIVE SCIENCE LTD., priority 2021, published 2024)
Several values for one entry are separate records, joined by “and”; a condition that tells them apart may be missing. Equal values may be shown once. Square brackets hold non-standard residues; d marks the D form. Peptide text beside a SMILES is read from it. * marks the point of attachment. pGlu = O=C1CC[C@@H](C(=O)O)N1; Octanoyl = CCCCCCCC(=O)*

Tested on: inflammatory cytokines in BALF
Experiment: LPS-induced acute lung injury / ARDS mouse model: BALF cytokine concentrations (multiplex ELISA)
Assay type: in vivo, BALB/c mice
Details: BALF
Protocol: In order to test the efficacy of ZEP3 sodium on lung inflammation, the lipopolysaccharide (LPS)-induced acute lung injury model was used. In particular, LPS was administered intratracheally at doses of 10 or 40 mg/kg body weight (BW) corresponding to 0.2 or 0.8 mg/mouse, respectively.
ZEP3 sodium was administered by inhalation (INH) at doses of 25 or 250 mg/kg BW (0.5 or 5 mg/mouse, respectively), or intratracheally (IT) at doses of 5 or 20 mg/kg BW (0.1 or 0.4 mg/mouse, respectively) 6 hours after LPS administration and its effect was measured 72 hours following administration in the branchial alveolar fluid (BALF) using FACS instrumentation.
To detect cytokine release in lungs fluid, cytokine concentrations were assessed in BALF samples using high sensitivity multiplex ELISA assays for: IFN-γ, IL-1α, IL-5, IL-6, IL-10, IL-12 (p70), IL-17A, KC, MCP-1, TNF-α, IP-10, RANTES, G-CSF, MIP-1α and RANTES. ZEP3Na administered intratracheally at 0.1 and 0.4 mg per mouse after instillation of 0.2 mg LPS inhibited the concentration of following interleukins: IL-1α, IL-6, IL-10, IL-12, IL-17, KC, MCP-1, TNF-α and G-CSF.

[1] = Group 2: ZEP3Na 0.1 mg IT, no LPS, group mean
[2] = Group 2: ZEP3Na 0.1 mg IT, no LPS, individual mice
[3] = Group 3: ZEP3Na 0.4 mg IT, no LPS, group mean
[4] = Group 3: ZEP3Na 0.4 mg IT, no LPS, individual mice
[5] = Group 4: LPS 0.8 mg + ZEP3Na 0.1 mg IT, group mean
[6] = Group 4: LPS 0.8 mg + ZEP3Na 0.1 mg IT, individual mice
[7] = Group 5: LPS 0.8 mg + ZEP3Na 0.4 mg IT, group mean
[8] = Group 5: LPS 0.8 mg + ZEP3Na 0.4 mg IT, individual mice
[9] = Group 8: LPS 0.2 mg + ZEP3Na 0.1 mg IT, group mean
[10] = Group 8: LPS 0.2 mg + ZEP3Na 0.1 mg IT, individual mice
[11] = Group 9: LPS 0.2 mg + ZEP3Na 0.4 mg IT, group mean

SMILES: CCCCCCCC(=O)NCCCC[C@H](NC(=O)[C@H](Cc1c[nH]c2ccccc12)NC(=O)[C@H](CC(N)=O)NC(=O)[C@@H]1CCC(=O)N1)C(=O)O [ZEP3Na, pGlu-Asn-Trp-Lys(Octanoyl)-ONa] ([pGlu]NWK(Octanoyl)-OH)
- production of IL-12 and TNF-α (0.8 mg LPS treated mice, 0.1 and 0.4 mg): significantly inhibited
- G-CSF [1]: 2.60 pg/mL
- IL-12 (p70) [1]: 7.31 pg/mL
- IL-17A [1]: 0.35 pg/mL
- KC [1]: 59.28 pg/mL
- MCP-1 [1]: 0.00 pg/mL
- G-CSF [2]: 2.37 pg/ml (2×) and 1.99 pg/ml (2×) and 5.06 pg/ml and 2.76 pg/ml (2×) and 3.53 pg/ml and 3.15 pg/ml
- G-CSF (pg/ml) [2]: undetected
- IL-12 (p70) [2]: 9.22 pg/ml (2×) and 9.10 pg/ml and 8.79 pg/ml (2×) and 7.39 pg/ml and 5.38 pg/ml and 4.32 pg/ml and 10.92 pg/ml
- IL-12 (p70) (pg/ml) [2]: undetected
- IL-17A [2]: 0.63 pg/mL and 2.12 pg/mL and 0.73 pg/mL
- IL-17A (pg/ml) [2]: undetected
- KC [2]: 46.08 pg/mL and 58.58 pg/mL and 58.91 pg/mL and 89.58 pg/mL and 95.87 pg/mL and 47.76 pg/mL and 43.47 pg/mL and 64.27 pg/mL and 42.44 pg/mL and 45.89 pg/mL
- MCP-1 (pg/ml) [2]: undetected
- G-CSF [3]: 3.26 pg/mL
- IL-12 (p70) [3]: 7.54 pg/mL
- IL-17A [3]: 1.26 pg/mL
- KC [3]: 70.95 pg/mL
- MCP-1 [3]: 4.89 pg/mL
- G-CSF [4]: 7.65 pg/ml and 3.47 pg/ml (2×) and 2.20 pg/ml (2×) and 6.40 pg/ml and 3.89 pg/ml
- G-CSF (pg/ml) [4]: undetected
- IL-12 (p70) [4]: 8.49 pg/ml (2×) and 7.27 pg/ml and 7.92 pg/ml and 5.27 pg/ml and 9.45 pg/ml and 7.21 pg/ml and 5.22 pg/ml and 8.54 pg/ml
- IL-17A [4]: 2.02 pg/ml and 1.13 pg/ml and 1.36 pg/ml and 1.47 pg/ml and 1.20 pg/ml (2×) and 1.06 pg/ml and 0.73 pg/ml and 1.14 pg/ml
- KC [4]: 56.01 pg/mL and 58.30 pg/mL and 63.33 pg/mL and 62.30 pg/mL and 71.12 pg/mL and 68.10 pg/mL and 52.39 pg/mL and 46.36 pg/mL and 160.65 pg/mL
- MCP-1 [4]: 11.53 pg/ml and 11.29 pg/ml (2×) and 9.93 pg/ml
- MCP-1 (pg/ml) [4]: undetected
- G-CSF [5]: 138.16 pg/mL
- IL-12 (p70) [5]: 124.09 pg/mL
- IL-17A [5]: 837.99 pg/mL
- KC [5]: 466.06 pg/mL
- MCP-1 [5]: 70.18 pg/mL
- G-CSF [6]: 250.42 pg/mL and 141.30 pg/mL and 164.43 pg/mL and 89.05 pg/mL and 416.35 pg/mL and 50.11 pg/mL and 131.80 pg/mL
- G-CSF (pg/ml) [6]: undetected
- IL-12 (p70) [6]: 6.33 pg/mL and 5.38 pg/mL and 235.43 pg/mL and 103.27 pg/mL and 192.86 pg/mL and 41.94 pg/mL and 414.83 pg/mL and 27.99 pg/mL and 88.80 pg/mL
- IL-17A [6]: 1287.47 pg/mL and 55.37 pg/mL and 719.90 pg/mL and 51.28 pg/mL and 5285.06 pg/mL and 77.04 pg/mL and 65.83 pg/mL
- IL-17A (pg/ml) [6]: undetected
- KC [6]: 39.18 pg/mL and 29.08 pg/mL and 847.35 pg/mL and 522.41 pg/mL and 798.01 pg/mL and 253.77 pg/mL and 831.88 pg/mL and 234.34 pg/mL and 638.49 pg/mL
- MCP-1 [6]: 70.21 pg/mL and 76.09 pg/mL and 93.90 pg/mL and 58.01 pg/mL and 114.01 pg/mL and 53.91 pg/mL and 165.51 pg/mL
- MCP-1 (pg/ml) [6]: undetected
- G-CSF [7]: 190.32 pg/mL
- IL-12 (p70) [7]: 102.59 pg/mL
- IL-17A [7]: 204.85 pg/mL
- KC [7]: 773.23 pg/mL
- MCP-1 [7]: 190.69 pg/mL
- G-CSF [8]: 491.06 pg/mL and 209.62 pg/mL and 268.52 pg/mL and 300.90 pg/mL and 7.65 pg/mL and 3.47 pg/mL and 124.37 pg/mL and 116.99 pg/mL
- IL-12 (p70) [8]: 7.58 pg/mL and 215.64 pg/mL and 368.44 pg/mL and 12.63 pg/mL and 7.60 pg/mL and 194.02 pg/mL and 14.83 pg/mL
- IL-12 (p70) (pg/ml) [8]: undetected
- IL-17A [8]: 7.23 pg/mL and 265.69 pg/mL and 1207.05 pg/mL and 13.05 pg/mL and 2.04 pg/mL and 0.52 pg/mL and 136.95 pg/mL and 6.24 pg/mL
- KC [8]: 1115.74 pg/mL and 1099.42 pg/mL and 1195.30 pg/mL and 488.61 pg/mL and 54.20 pg/mL and 57.06 pg/mL and 981.92 pg/mL and 1193.59 pg/mL
- MCP-1 [8]: 810.24 pg/mL and 166.84 pg/mL and 79.29 pg/mL and 307.60 pg/mL and 15.45 pg/mL and 83.52 pg/mL and 62.54 pg/mL
- MCP-1 (pg/ml) [8]: undetected
- G-CSF [9]: 187.95 pg/mL
- IL-12 (p70) [9]: 264.97 pg/mL
- IL-17A [9]: 724.27 pg/mL
- KC [9]: 1023.71 pg/mL
- MCP-1 [9]: 133.24 pg/mL
- G-CSF [10]: 175.22 pg/mL and 144.90 pg/mL and 109.99 pg/mL and 383.77 pg/mL and 239.49 pg/mL and 199.64 pg/mL and 249.05 pg/mL and 93.60 pg/mL and 177.33 pg/mL and 106.48 pg/mL
- IL-12 (p70) [10]: 247.16 pg/mL and 386.37 pg/mL and 66.34 pg/mL and 199.27 pg/mL and 322.18 pg/mL and 422.04 pg/mL and 317.94 pg/mL and 97.45 pg/mL and 202.28 pg/mL and 388.69 pg/mL
- IL-17A [10]: 553.70 pg/mL and 1615.14 pg/mL and 285.28 pg/mL and 1776.16 pg/mL and 862.84 pg/mL and 989.92 pg/mL and 458.49 pg/mL and 111.01 pg/mL and 281.41 pg/mL and 308.73 pg/mL
- KC [10]: 782.52 pg/mL and 1528.47 pg/mL and 503.00 pg/mL and 672.71 pg/mL and 1548.79 pg/mL and 1057.28 pg/mL and 1346.32 pg/mL and 808.21 pg/mL and 1086.03 pg/mL and 903.77 pg/mL
- MCP-1 [10]: 107.46 pg/mL and 158.19 pg/mL and 142.05 pg/mL and 85.01 pg/mL and 91.65 pg/mL and 135.00 pg/mL and 216.90 pg/mL and 114.81 pg/mL and 109.95 pg/mL and 171.38 pg/mL
- G-CSF [11]: 172.12 pg/mL
- IL-12 (p70) [11]: 161.01 pg/mL
- IL-17A [11]: 584.07 pg/mL
